Here are results for 12 compounds from patent US10093630B2, “Pyrazole compounds and methods of making and using same” (ABIDE THERAPEUTICS, INC., priority 2014, dated 2018).

Experiment in all cases: In vitro competitive activity-based protein profiling (gel-based, FP-Rh or HT-01 probe)
Format in all cases: biochemical

Test [1] addresses T1, ABHD6 (Mus musculus, UniProt Q8R2Y0).
T1 construct: Proteomes (mouse brain membrane fraction or cell lysates); from tissue; host or cells: mouse brain membrane fraction (or cell lysates, not specified)
T1 sequence (Q8R2Y0 1-336): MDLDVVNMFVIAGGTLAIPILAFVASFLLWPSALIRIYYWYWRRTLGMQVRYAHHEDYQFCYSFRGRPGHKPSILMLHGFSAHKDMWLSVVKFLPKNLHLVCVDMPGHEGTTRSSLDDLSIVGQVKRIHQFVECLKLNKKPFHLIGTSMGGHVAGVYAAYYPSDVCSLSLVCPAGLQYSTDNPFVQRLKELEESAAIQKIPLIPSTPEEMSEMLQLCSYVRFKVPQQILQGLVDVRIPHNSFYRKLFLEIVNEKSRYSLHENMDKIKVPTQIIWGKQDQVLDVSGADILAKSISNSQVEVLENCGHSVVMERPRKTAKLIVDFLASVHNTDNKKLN
As to conditions: for inhibition at 1 µM: 1 μM inhibitor, read-out: % Inhibition at 1 μM, C = ABHD6; for IC50: mouse brain membrane fraction or cell lysates, 30 min preincubation at 37° C., read-out: Mouse (IC50 value, nM) ABHD6. The gist of the method:
(§1)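 Steps: inhibitor dilutions + proteome (1.0 mg/mL), 30 min, 37° C; add FP-Rh or HT-01 (50 μM DMSO stock), 30 min, 37° C; quench in SDS buffer; SDS-PAGE; gel imaging; band densitometry.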

Test [2] has as its target T2, MAGL (Mus musculus, UniProt O35678).
T2 construct: Proteomes (mouse brain membrane fraction or cell lysates); from tissue; host or cells: mouse brain membrane fraction (or cell lysates, not specified)
T2 sequence (O35678 1-303): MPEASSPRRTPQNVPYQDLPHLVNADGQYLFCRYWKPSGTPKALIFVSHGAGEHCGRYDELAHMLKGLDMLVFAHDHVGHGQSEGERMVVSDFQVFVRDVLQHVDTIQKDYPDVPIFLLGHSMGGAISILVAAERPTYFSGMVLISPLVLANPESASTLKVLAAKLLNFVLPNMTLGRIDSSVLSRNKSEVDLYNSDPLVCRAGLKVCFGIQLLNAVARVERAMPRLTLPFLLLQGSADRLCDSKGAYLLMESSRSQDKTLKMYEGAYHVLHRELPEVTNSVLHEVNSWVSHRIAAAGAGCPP
As to conditions: for inhibition at 1 µM: 1 μM inhibitor; for IC50: mouse brain membrane fraction or cell lysates, 30 min preincubation at 37° C., read-out: Mouse (IC50 value, nM) MAGL. The procedure, abridged:
as §1

The target of test [3] is T3, PLA2G7 (Mus musculus, UniProt Q60963).
T3 construct: Proteomes (mouse brain membrane fraction or cell lysates); from tissue; host or cells: mouse brain membrane fraction (or cell lysates, not specified)
T3 sequence (Q60963 22-440): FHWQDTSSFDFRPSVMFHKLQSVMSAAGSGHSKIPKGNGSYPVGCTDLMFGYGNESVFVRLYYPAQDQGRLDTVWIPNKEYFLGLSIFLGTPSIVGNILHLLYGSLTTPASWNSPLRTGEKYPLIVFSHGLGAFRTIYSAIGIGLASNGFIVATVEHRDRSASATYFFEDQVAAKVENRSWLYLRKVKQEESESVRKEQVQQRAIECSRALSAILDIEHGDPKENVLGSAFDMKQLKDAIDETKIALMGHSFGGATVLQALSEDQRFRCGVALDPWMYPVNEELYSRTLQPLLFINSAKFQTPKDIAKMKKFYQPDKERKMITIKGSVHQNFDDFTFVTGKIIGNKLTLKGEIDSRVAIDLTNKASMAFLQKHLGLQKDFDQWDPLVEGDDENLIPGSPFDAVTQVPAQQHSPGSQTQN
Conditions: for inhibition at 1 µM: 1 μM inhibitor, read-out: % Inhibition at 1 μM, D = PLA2G7; for IC50: mouse brain membrane fraction or cell lysates, 30 min preincubation at 37° C. The gist of the method: as §1

The target in test [4] is T4, FAAH (Mus musculus, UniProt O08914).
T4 construct: Proteomes (mouse brain membrane fraction or cell lysates); from tissue; host or cells: mouse brain membrane fraction (or cell lysates, not specified)
T4 sequence (O08914 1-579): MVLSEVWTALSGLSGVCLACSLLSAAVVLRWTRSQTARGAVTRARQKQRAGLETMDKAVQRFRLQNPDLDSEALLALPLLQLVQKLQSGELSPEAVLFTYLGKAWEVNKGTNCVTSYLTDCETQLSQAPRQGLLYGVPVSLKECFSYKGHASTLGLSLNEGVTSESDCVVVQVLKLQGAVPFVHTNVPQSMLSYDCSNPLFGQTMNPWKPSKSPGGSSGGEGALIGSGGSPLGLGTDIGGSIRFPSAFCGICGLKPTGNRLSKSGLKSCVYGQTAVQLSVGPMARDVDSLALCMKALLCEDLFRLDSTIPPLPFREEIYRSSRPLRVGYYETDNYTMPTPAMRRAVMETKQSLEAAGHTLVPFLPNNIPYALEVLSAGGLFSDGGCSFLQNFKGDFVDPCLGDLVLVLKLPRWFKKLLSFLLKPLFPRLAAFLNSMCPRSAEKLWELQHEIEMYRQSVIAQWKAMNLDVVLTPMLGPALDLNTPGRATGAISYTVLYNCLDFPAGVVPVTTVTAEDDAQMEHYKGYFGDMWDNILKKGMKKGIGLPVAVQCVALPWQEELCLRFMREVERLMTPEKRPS
As to conditions: for inhibition at 1 µM: 1 μM inhibitor, read-out: % Inhibition at 1 μM, B = FAAH; for IC50: mouse brain membrane fraction or cell lysates, 30 min preincubation at 37° C., read-out: Mouse (IC50 value, nM) FAAH. The procedure, abridged:
as §1

Bounds are passed on as bounds.

For the compound `COc1cccc(CN2CCN(C(=O)n3cc(C(F)(F)F)cn3)CC2)c1` [Example 271, (4-(3-Methoxybenzyl)piperazin-1-yl)(4-(trifluoromethyl)-1H-pyrazol-1-yl)methanone], the inhibition at 1 µM in test [1] (gel-based competitive ABPP), in test [2] (gel-based competitive ABPP), in test [3] (gel-based competitive ABPP) and in test [4] (gel-based competitive ABPP) was greater than 75% throughout. Besides, the IC50 in test [1], in test [2], in test [3] and in test [4] was less than 100 nM throughout.
Consider `O=C(N1CCN(Cc2cccc(C(F)(F)F)c2)CC1)n1cc(C(F)(F)F)cn1` [Example 272, (4-(Trifluoromethyl)-1H-pyrazol-1-yl)(4-(3-(trifluoromethyl)benzyl)piperazin-1-yl)methanone], for which the inhibition at 1 µM in test [1] (gel-based competitive ABPP), in test [2] (gel-based competitive ABPP), in test [3] (gel-based competitive ABPP) and in test [4] (gel-based competitive ABPP) was greater than 75% each time. The IC50 (usually the concentration needed to halve the response being measured) in test [1] is less than 100 nM; in test [2], less than 100 nM; in test [3], 100 to 1000 nM; in test [4], less than 100 nM.
In the case of `O=C(N1CCN(Cc2cccc(N3CCCC3)c2)CC1)n1cc(C(F)(F)F)cn1` [Example 273, (4-(3-(Pyrrolidin-1-yl)benzyl)piperazin-1-yl)(4-(trifluoromethyl)-1H-pyrazol-1-yl)methanone], the inhibition at 1 µM in test [1] (gel-based competitive ABPP), in test [2] (gel-based competitive ABPP), in test [3] (gel-based competitive ABPP) and in test [4] (gel-based competitive ABPP) was greater than 75% throughout. Further, the 50% inhibitory concentration (IC50) in test [1], in test [2], in test [3] and in test [4] was less than 100 nM throughout.
Regarding `O=C(N1CCN(Cc2cccc(N3CCOCC3)c2)CC1)n1cc(C(F)(F)F)cn1` [Example 274, (4-(3-Morpholinobenzyl)piperazin-1-yl)(4-(trifluoromethyl)-1H-pyrazol-1-yl)methanone], the inhibition at 1 µM in test [1] (gel-based competitive ABPP), in test [2] (gel-based competitive ABPP), in test [3] (gel-based competitive ABPP) and in test [4] (gel-based competitive ABPP) was greater than 75% in each case. The IC50 in test [1] is less than 100 nM; in test [2] it was less than 100 nM; in test [3], less than 100 nM; in test [4], 100 to 1000 nM.
Consider `O=C(N1CCN(Cc2ccccc2Cl)CC1)n1cc(C(F)(F)F)cn1` [Example 275, (4-(2-Chlorobenzyl)piperazin-1-yl)(4-(trifluoromethyl)-1H-pyrazol-1-yl)methanone], for which the inhibition at 1 µM in test [1] (gel-based competitive ABPP), in test [2] (gel-based competitive ABPP), in test [3] (gel-based competitive ABPP) and in test [4] (gel-based competitive ABPP) was greater than 75% in each case. For the same compound, the IC50 in test [1], in test [2], in test [3] and in test [4] was less than 100 nM each time.
In the case of `O=C(N1CCN(Cc2ccccc2F)CC1)n1cc(C(F)(F)F)cn1` [Example 276, (4-(2-Fluorobenzyl)piperazin-1-yl)(4-(trifluoromethyl)-1H-pyrazol-1-yl)methanone], the inhibition at 1 µM in test [1] (gel-based competitive ABPP), in test [2] (gel-based competitive ABPP), in test [3] (gel-based competitive ABPP) and in test [4] (gel-based competitive ABPP) was greater than 75% each time. In addition, the IC50 in test [1], in test [2], in test [3] and in test [4] was less than 100 nM throughout.
Regarding `Cc1ccccc1CN1CCN(C(=O)n2cc(C(F)(F)F)cn2)CC1` [Example 277, (4-(2-Methylbenzyl)piperazin-1-yl)(4-(trifluoromethyl)-1H-pyrazol-1-yl)methanone], the inhibition at 1 µM in test [1] (gel-based competitive ABPP), in test [2] (gel-based competitive ABPP), in test [3] (gel-based competitive ABPP) and in test [4] (gel-based competitive ABPP) was greater than 75% throughout.
As for `COc1ccccc1CN1CCN(C(=O)n2cc(C(F)(F)F)cn2)CC1` [Example 278, (4-(2-Methoxybenzyl)piperazin-1-yl)(4-(trifluoromethyl)-1H-pyrazol-1-yl)methanone], the inhibition at 1 µM in test [1] (gel-based competitive ABPP), in test [2] (gel-based competitive ABPP), in test [3] (gel-based competitive ABPP) and in test [4] (gel-based competitive ABPP) was greater than 75% in each case.
For the compound `O=C(N1CCN(Cc2ccccc2C(F)(F)F)CC1)n1cc(C(F)(F)F)cn1` [Example 279, (4-(Trifluoromethyl)-1H-pyrazol-1-yl)(4-(2-(trifluoromethyl)benzyl)piperazin-1-yl)methanone], the inhibition at 1 µM in test [1] (gel-based competitive ABPP), in test [2] (gel-based competitive ABPP), in test [3] (gel-based competitive ABPP) and in test [4] (gel-based competitive ABPP) was greater than 75% throughout. Moreover, the IC50 is less than 100 nM in test [1], less than 100 nM in test [2], 100 to 1000 nM in test [3] and less than 100 nM in test [4].
For `O=C(N1CCN(Cc2ccccc2N2CCCC2)CC1)n1cc(C(F)(F)F)cn1` [Example 280, (4-(2-(Pyrrolidin-1-yl)benzyl)piperazin-1-yl)(4-(trifluoromethyl)-1H-pyrazol-1-yl)methanone], the inhibition at 1 µM in test [1] (gel-based competitive ABPP), in test [2] (gel-based competitive ABPP), in test [3] (gel-based competitive ABPP) and in test [4] (gel-based competitive ABPP) was greater than 75% in each case. For the same compound, the IC50 in test [1] is 100 to 1000 nM; in test [2], less than 100 nM; in test [3], less than 100 nM; in test [4] it was 100 to 1000 nM.
Consider `O=C(N1CCN(Cc2ccccc2N2CCOCC2)CC1)n1cc(C(F)(F)F)cn1` [Example 281, (4-(2-Morpholinobenzyl)piperazin-1-yl)(4-(trifluoromethyl)-1H-pyrazol-1-yl)methanone], for which the inhibition at 1 µM in test [1] (gel-based competitive ABPP), in test [2] (gel-based competitive ABPP), in test [3] (gel-based competitive ABPP) and in test [4] (gel-based competitive ABPP) was greater than 75% throughout.
Take `N#Cc1cnn(C(=O)N2CCN(Cc3ccc(C(=O)N4CCCCC4)cc3Cl)CC2)c1` [Example 282, 1-(4-(2-Chloro-4-(piperidine-1-carbonyl)benzyl)piperazine-1-carbonyl)-1H-pyrazole-4-carbonitrile]: the inhibition at 1 µM in test [1] (gel-based competitive ABPP), in test [2] (gel-based competitive ABPP), in test [3] (gel-based competitive ABPP) and in test [4] (gel-based competitive ABPP) was greater than 75% each time. Also, the inhibition (commonly the drop in the measured response relative to a control, in per cent) at 10 µM is greater than 75% in test [1] (10 μM inhibitor, gel-based competitive ABPP, read-out: % Inhibition at 10 μM, C = ABHD6); greater than 75% in test [2] (10 μM inhibitor, gel-based competitive ABPP); greater than 75% in test [3] (10 μM inhibitor, gel-based competitive ABPP, read-out: % Inhibition at 10 μM, D = PLA2G7); greater than 75% in test [4] (10 μM inhibitor, gel-based competitive ABPP, read-out: % Inhibition at 10 μM, B = FAAH).
